Test systems include SNB-75 CNS; MALME-3M melanoma; UACC-257 melanoma; KM12 colon; T-47D breast; SW-620 colon; SNB-19 CNS; NCI-H226 lung; MCF7 breast; SF-295 CNS.
Test in all cases: NCI tumour cell line growth inhibition, 48 h

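Five compound concentrations were applied to cells in 96-well plates for 48 hours; endpoints were derived by simple linear interpolation of the resulting dose-response curve. TGI is the concentration that stops growth completely.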 Some results are limits rather than exact numbers.

The results in this text go back to PubChem BioAssay (NCI).

Turning to `Cc1[nH]c(-c2ccccc2)c(-c2ccc(Cl)cc2)c1C(=O)ONC(=O)c1ccccc1`, the TGI with SNB-75 CNS was 15.1 µM; with MALME-3M melanoma it was 23.5 µM; with UACC-257 melanoma, 20.8 µM; in the assay with KM12 colon, > 48.3 µM; in the assay on T-47D breast, 18.1 µM; in the assay with SW-620 colon it was 31.7 µM. Also, the TGI in the assay with SNB-19 CNS came out at 19.3 µM; in the assay with NCI-H226 lung, 11.6 µM; in the assay on MCF7 breast it was 28 µM; in the assay on SF-295 CNS, 4.74 µM.

Turning to `CSCCC(NC(=O)OC(C)(C)C)C(=O)NCCNc1ccc(NCCNC(=O)C(CCSC)NC(=O)OC(C)(C)C)c2c1C(=O)c1ccccc1C2=O` (configuration not stated), the TGI with SNB-75 CNS is 8.54 µM; in the assay on MALME-3M melanoma, 9.35 µM; in the assay on UACC-257 melanoma it was 12.1 µM; with KM12 colon, > 63.6 µM; in the assay with T-47D breast it was 12.1 µM; in the assay with SW-620 colon, 7.3 µM. For the same compound, the TGI with SNB-19 CNS was determined as 16.6 µM; with NCI-H226 lung, 19.7 µM; in the assay with MCF7 breast it was 19.2 µM; in the assay on SF-295 CNS, 21.1 µM.

On to `COC(=O)C(C)Sc1nc2cc(Cl)ccc2s1` (configuration not stated), for which the TGI in the assay on SNB-75 CNS, in the assay on MALME-3M melanoma, in the assay with UACC-257 melanoma, with KM12 colon, in the assay on T-47D breast and in the assay with SW-620 colon was > 100 µM each time. Also, the TGI in the assay on SNB-19 CNS, in the assay on NCI-H226 lung, in the assay on MCF7 breast and with SF-295 CNS was > 100 µM in each case.

For the compound `CCOC(=O)c1cn(-c2ccc(Cl)cc2)c(=O)n2c1nc1ccccc12`, the TGI with SNB-75 CNS, in the assay with UACC-257 melanoma, in the assay with KM12 colon, with T-47D breast, in the assay on SW-620 colon and in the assay with SNB-19 CNS was > 100 µM each time. In addition, the TGI in the assay on NCI-H226 lung, with MCF7 breast and with SF-295 CNS was > 100 µM in each case.

Take `COc1ccc2c(c1)CCc1c-2n(CCN(C)C)c2ccc(OC)cc12`: the TGI is 76.5 µM with SNB-75 CNS; 53.5 µM with MALME-3M melanoma; > 100 µM in the assay with UACC-257 melanoma; 86.7 µM in the assay with KM12 colon; 85.4 µM in the assay with T-47D breast; 74.5 µM in the assay with SW-620 colon. The TGI is 36.5 µM in the assay on SNB-19 CNS, 10.6 µM with NCI-H226 lung, 69.9 µM in the assay with MCF7 breast and > 100 µM in the assay with SF-295 CNS.

As to `O=C1C=CC(=O)c2ncccc21`, the TGI in the assay with SNB-75 CNS amounted to 17.2 µM; with MALME-3M melanoma, 9.78 µM; in the assay with UACC-257 melanoma, 11.2 µM; in the assay on KM12 colon, 25.5 µM; with T-47D breast, 5.18 µM; in the assay on SW-620 colon it was 4.62 µM. Moreover, the TGI with SNB-19 CNS is 19.1 µM; with NCI-H226 lung, 32.4 µM; in the assay with MCF7 breast, 25.8 µM; with SF-295 CNS, 23.1 µM.

In the case of `CC(C)(C)N1Cc2ccccc2/C(=C/Sc2ccccc2)C1=O`, the TGI in the assay on SNB-75 CNS stood at 31.9 µM; in the assay on MALME-3M melanoma, 28.7 µM; in the assay with UACC-257 melanoma, 31.2 µM; in the assay with KM12 colon, 31.4 µM; in the assay on T-47D breast, 45.3 µM; in the assay on SW-620 colon, 27.4 µM. In addition, the TGI in the assay on SNB-19 CNS stood at 30.9 µM; in the assay with NCI-H226 lung it was 25.9 µM; with MCF7 breast, 24.3 µM; with SF-295 CNS, 33.8 µM.

For the compound `CSC1SCC2C(=O)N(C)C3(CC3C)C(=O)OCC(NC(=O)c3nc4ccccc4cc3O)C(=O)NC(C)C(=O)N(C)C1C(=O)N(C)C1(CC1C)C(=O)OCC(NC(=O)c1nc3ccccc3cc1O)C(=O)NC(C)C(=O)N2C` (configuration not stated), the TGI was < 0.0001 µM in the assay with SNB-75 CNS; < 0.0001 µM with UACC-257 melanoma; < 0.0001 µM with KM12 colon; > 100 µM in the assay with T-47D breast; > 100 µM with SW-620 colon; 6.9 µM in the assay on SNB-19 CNS. The TGI with NCI-H226 lung is < 0.0001 µM; in the assay with MCF7 breast it was 10.3 µM.

In the case of `O=C(O)c1ccccc1/C=N\NC1=NCCCCN1`, the TGI in the assay on SNB-75 CNS, with MALME-3M melanoma, in the assay on UACC-257 melanoma, in the assay on KM12 colon, in the assay on T-47D breast and with SW-620 colon was > 100 µM each time. The TGI in the assay with SNB-19 CNS, with NCI-H226 lung, in the assay with MCF7 breast and in the assay on SF-295 CNS was > 100 µM throughout.

On to `CCOC(=O)c1c(N2CCOCC2)[nH]c(=O)c(C(c2ccc(OC)cc2)c2c(O)c(C(=O)OCC)c(N3CCOCC3)[nH]c2=O)c1O`, for which the TGI with SNB-75 CNS, in the assay with MALME-3M melanoma, with UACC-257 melanoma, in the assay with KM12 colon, in the assay on T-47D breast and with SW-620 colon was > 100 µM each time. In addition, the TGI in the assay with SNB-19 CNS, in the assay on NCI-H226 lung, in the assay with MCF7 breast and in the assay on SF-295 CNS was > 100 µM each time.

For the compound `CCOC(=O)C1=C(C)NC(=S)NC1c1cccc(O)c1` (configuration not stated), the TGI in the assay with SNB-75 CNS is > 95.4 µM; with MALME-3M melanoma, > 100 µM; with UACC-257 melanoma, > 100 µM; with KM12 colon, > 100 µM; with T-47D breast, > 100 µM; in the assay with SW-620 colon it was > 100 µM. In addition, the TGI with SNB-19 CNS was > 100 µM; with NCI-H226 lung, > 100 µM; with MCF7 breast it was > 100 µM; with SF-295 CNS it was 93.6 µM.

Regarding `CC1(C)[C@@H]2C[C@H]1c1cnc(-c3ccccn3)cc1C2[C@@H]1c2cc(-c3ccccn3)ncc2[C@@H]2C[C@H]1C2(C)C` (some centres not stated), the TGI in the assay with SNB-75 CNS, with MALME-3M melanoma, in the assay with UACC-257 melanoma, in the assay with KM12 colon, in the assay with T-47D breast and in the assay with SW-620 colon was > 100 µM each time. The TGI in the assay on SNB-19 CNS, with NCI-H226 lung, with MCF7 breast and with SF-295 CNS was > 100 µM in each case.

With `O=C(NCCNCCO)N/N=C/c1ccc(Cl)cc1`, the TGI in the assay on SNB-75 CNS, in the assay on MALME-3M melanoma, with UACC-257 melanoma, with KM12 colon, in the assay with T-47D breast and in the assay on SW-620 colon was > 100 µM each time. The TGI with SNB-19 CNS, with NCI-H226 lung, in the assay on MCF7 breast and with SF-295 CNS was > 100 µM throughout.
